The nature of data set [1]: Absorbance and fluorescence of fluorophore/HSA conjugates in solution. Format: physicochemical. The note with it: pH 7.4; free acid 10 micromolar, conjugates 1 micromolar.
Description: A 10 micromolar solution of SNAFL-1 acid (obtained from Molecular Probes) at pH 7 was used as a standard to more accurately determine the average loading of SNAFL-1 per each HSA conjugate preparation.
Excitation conditions are reported for each fluorescence spectrum (3000 msec irradiation at the indicated wavelength).
The Ocean Optics halogen light source was equipped with a 532 nm interference filter (Edmund Optics, Barrington, N.J.) and this allowed the fluorescent isosbestic point at 572 nm for pH 6-7 to be detected.
Data set [2] can be described thus: pKa determination from fluorescence emission spectra of SNAFL free acids. The note with it: 10 μM free acid, 50 mM phosphate buffers. Format: physicochemical. The source says:
The pH at which two molecular species (tautomers) are equally represented is defined as the pKa. There are many variables that can affect pKa and methods for measurement are difficult since the structures have overlapping absorbance. Therefore direct comparisons from the literature can vary slightly. The calculations contained herein are based on the assumption that, at pH 10, only the trianionic naphtholate structure is present. The intensity of fluorescence at the emission maxima is divided by 2, and pH of the intersecting pH curve is calculated by interpolation between the nearest 2 curves.

A short description of data set [3]: Photobleaching degradation under fluorescent light. It counts as physicochemical. The protocol:
A photobleaching degradation curve for EBIO-3 and BCSI-3 was constructed utilizing fluorescent light exposure and measuring the absorption at 530 nm to quantify functional dye. Identical concentrations of both dyes, 7.9 μM, were exposed to continuous fluorescent light (34 W Philips Hg bulb) from a distance of 16 inches for 3 days. At 73.5 hours the two dyes had degraded 64% and the degradation is within 5.6% of each other.

A short description of data set [4]: Absorbance and emission spectra versus pH of SNAFL analogs in solution.
Protocol: Absorbance was measured at pH 6, 8, and 10: acid (pH 6) gave two bands of similar absorbance; pH 10 gave a single λmax (base). The emission spectra were determined by excitation at the absorbance λmax (base). The wavelength where emission spectra crossed is reported as λiso. The emission λmax was measured at pH 10. pKa was determined from fluorescence emission spectra.
Fluorescence versus pH of various SNAFL free acids were compared using an Ocean Optics USB2000 fiber optic spectrometer and a tungsten halogen light source (part number HL-2000 FHSA). The light source was equipped with a linear variable filter that allowed the wavelength and shape of the excitation beam to be adjusted. The excitation wavelength was adjusted by using a blank cuvette to the absorbance max of the fluorophore (see Table 1). A cuvette holder (part number CUV-FL-DA) was directly attached to the light source and a fiber optic cable directed emitted light to the spectrometer. Excitation conditions are reported for each fluorescence spectrum (3000 msec irradiation at the indicated wavelength). Spectral data were collected on a personal computer using the Ocean Optics software and overlays of different spectra were captured.
SNAFL-1 was purchased as the free carboxylic acid from Molecular Probes in a 1 mg vial. 0.3 mL of isopropyl alcohol and 0.7 mL of water was added to make a 1 mg/mL solution. A molecular weight (MW) of 426 for SNAFL-1 was used to calculate molarity (SNAFL-1=2.35 mM). 4.25 uL of this solution was diluted to 1 mL with various 50 mM phosphate buffers to give 10 micromolar solutions with pH 6-10. 10 micromolar solutions of SNAFL-2 (MW=460) were prepared in a similar fashion. EBIO-1 (MW=523), EBIO-2 (MW=627), and EBIO-3 (MW=489) were obtained as bulk compounds from Epoch Biosciences. 1.6 mg of each solid powder was carefully weighed out and dissolved in 3.2 mL of 40% isopropyl alcohol to give 0.5 mg/mL solutions. Emission spectra were obtained for the various SNAFL and EBIO compounds at pH 6.0, 6.2, 6.4, 6.6, 6.8, 7.0, 8.0 and 10.0. […]
The conditions of data set [5]: cited from earlier work.
Setting [6] is: Lee et al. (1989) Cytometry 10, 151-164.

Where two headings read alike, the source gives them in different places.

Protocol for physchem: The pKa of BCSI-3 was determined by an absorbance assay with controlled pH buffers.

`O=C(O)CCc1cc2c(-c3ccccc3C(=O)O)c3ccc4cc(O)c(Cl)cc4c3oc-2cc1=O` [EBIO-3] yielded an absorbance maximum in data set [1] of 534 nm. Moreover, the pKa in data set [2] worked out at 6.6; in the data set “physchem” it was 6.61. Also, the “degraded (reduction in absorbance at 530 nm)” value in data set [3] (73.5 hours continuous fluorescent light, 7.9 μM, pH 7.4 PBS) is recorded as 64%. Further, the “absorption at 530 nm of control set” value in data set [3] (protected from light) is listed as “unchanged”. In addition, in data set [4] (10 μM, pH 10), the “Absorbance λmax (base)” value stood at 534 nm. In data set [4] (pH 10, excitation at absorbance λmax (base)), the “Emission λmax (base)” value is 610 nm. Further, the “Emission λiso” value in data set [4] (wavelength where emission spectra crossed, excitation at absorbance λmax (base)) is 560 nm.

As to `O=S1(=O)OC2(c3ccccc31)c1ccc3cc(O)ccc3c1Oc1c2ccc2cc(O)ccc12` [VITABLUE], in data set [5] (setting [6]), the pKa is given as 7.56.

For Carboxynaphthofluorescein [CNF], the pKa in data set [5] (setting [6]) was 7.99; in data set [5] (published values, free or immobilized dye), 7.62.

Usually pKa stands for the pH at which an ionisable group is half protonated.

These data come from patent publication US9040307B2, “Fluorescent pH detector system and related methods” (Blood Cell Storage, Inc., priority 2011, dated 2015).
